Assay results: US7470549B2, “Measurement method using biosensor” (FUJIFILM Corporation, priority 2004, dated 2008)

What was measured:
Trypsin [1] = biological target: T1, Trypsin (Bos taurus, UniProt P00760); assay: SPR measurement of substance binding to trypsin immobilized on hydrogel-coated chip (Examples 1-4); conditions: for Bond of substance interacting with trypsin (RU): 0.002 mM solution, left at rest 10 minutes, change of resonance signal, hydrogel-coated chip; for Binding to trypsin (in words): comment on Table 1
T1 sequence (P00760 24-246): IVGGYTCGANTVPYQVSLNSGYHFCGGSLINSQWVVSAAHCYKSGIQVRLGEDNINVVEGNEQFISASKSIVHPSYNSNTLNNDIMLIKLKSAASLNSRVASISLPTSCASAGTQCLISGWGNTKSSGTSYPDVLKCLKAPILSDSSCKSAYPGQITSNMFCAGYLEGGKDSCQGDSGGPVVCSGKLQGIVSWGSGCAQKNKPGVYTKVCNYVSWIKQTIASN
Experimental: Trypsin (manufactured by Worthington) was immobilized on a measurement chip. Interaction measurement was carried out using a surface plasmon resonance measurement device.
(§1) A mixed solution consisting of 1-ethyl-2,3-dimethylaminopropylcarbodiimide (400 mM) and N-hydroxysuccinimide (100 mM) was added to a hydrogel-coated chip, followed by leaving at rest for 20 minute. Thereafter, the resultant product was washed with an HBS-N buffer containing 10 mM CaCl2. Subsequently, trypsin (1 mg/ml, 10 mM CaCl2-containing HBS-N buffer) was added thereto, followed by leaving at rest for 30 minutes. Thereafter, the resultant product was washed with a 10 mM CaCl2-containing HBS-N buffer. The used HBS-N buffer is composed of 0.01 mol/l (pH 7.4) HEPES (N-2-hydroxyethylpiperazine-N′-2-ethanesulfonic acid) and 0.15 mol/l NaCl.
Thereafter, an ethanolamine/HCl solution (1M, pH 8.5) was added to the measurement chip, followed by washing with an HBS-N buffer (manufactured by Biacore), so as to block COOH groups that remained without reacting with trypsin.
(§2) By the aforementioned operations, trypsin was immobilized on the surface of the measurement chip via a covalent bond. The amount by which resonance signals (RU value) obtained before the addition of trypsin and after washing it had changed was defined as the immobilized amount of trypsin (RU value).
(§3) A measurement chip was washed with an HBS-N buffer. Thereafter, the measurement chip was equipped into a surface plasmon resonance measurement device, and a leupeptin solution (0.002 mM, HBS-N buffer) was added thereto, followed by leaving at rest for 10 minutes. The amount by which resonance signals (RU value) had changed was defined as the amount of leupeptin (manufactured by ICN) binding to trypsin.
A measurement chip was washed with an HBS-N buffer.
as §3, with “chymostatin” for “leupeptin”

Trypsin [2] = biological target: T1, Trypsin; assay: Enzyme activity of immobilized trypsin with Bz-Arg-MCA, fluorescence of decomposed product, same hydrogel chip (Examples 1-4); type: biochemical; conditions: for Measurement results of fluorescence intensity (120 minutes): 0.002 mM substance, 0.1 mM Bz-Arg-MCA, excitation 380 nm, emission 460 nm, no substance: 580; for Inhibitory action on the enzyme activity of trypsin (in words): comment on Table 1
Experimental: (§4) Using the chip after the measurement of the amount of leupeptin binding to trypsin described in (2) above, the enzyme activity of trypsin was measured. Specifically, a substrate specific to trypsin (benzoyl-L-arginine-4-methylcoumarin-7-amide (hereinafter referred to as Bz-Arg-MCA); Peptide Institute, Inc.) was allowed to react with trypsin, and fluorescence in the decomposed product was measured.
The HBS-N buffer contained in the measurement chip was removed, and a leupeptin solution (0.002 mM, HBS-N buffer) and 0.1 mM Bz-Arg-MCA were added thereto. The reaction was then carried out for 10, 30, 60, and 120 minutes.
Fluorescence measurement was carried out regarding the reaction for each of the aforementioned reaction times, using the BMGLabTechnologies FLUOstar measurement device (excitation: 380 nm; and emission: 460 nm).
(§5) Specifically, a substrate specific to trypsin (benzoyl-L-arginine-4-methylcoumarin-7-amide (hereinafter referred to as Bz-Arg-MCA); Peptide Institute, Inc.) was allowed to react with trypsin, and fluorescence in the decomposed product was measured.
The reaction was then carried out for 10, 30, 60, and 120 minutes.
Fluorescence measurement was carried out regarding the reaction for each of the aforementioned reaction times, using the BMGLabTechnologies FLUstar measurement device (excitation: […]; and emission: 460 nm).
as §4, with “chymostatin” for “leupeptin”, “trypsin” for “trypsin described”
The HBS-N buffer contained in the measurement chip was removed, and a chymostatin solution (0.002 mM, HBS-N buffer) and 0.1 mM Bz-Arg-MCA were added thereto. The reaction was then carried out for 10, 30, 60, and 120 minutes.
(§6) Fluorescence measurement was carried out regarding the reaction for each of the aforementioned reaction times, using the BMGLabTechnologies FLUstar measurement device (excitation: 380 nm; and emission: 460 nm).

Trypsin [3] = biological target: T1, Trypsin; assay: Selection of compounds by affinity: SPR binding to trypsin-immobilized PMMA/PEO sensor chip (Example 6); conditions: for Binding amount (RU): left at rest 10 minutes, change of resonance signal, PMMA sensor chip
Experimental: Using the SPR system used for screening shown in FIG. 1, immobilization of a ligand, the binding measurement of compounds, and selection of compounds were carried out.
Thereafter, it was placed in a spin coater (MODEL ASS-303; manufactured by ABLE) and then rotated at 1,000 rpm. 50 μl of a methyl ethyl ketone solution containing polymethyl methacrylate (2 mg/ml) was added dropwise to the center of the cover glass coated with gold via evaporation, and 2 minutes later, the rotation was terminated. The thickness of the membrane was measured by the ellipsometry method (In-Situ Ellipsometer MAUS-101; manufactured by Five Lab). […] This sample is called a PMMA surface chip. This PMMA surface chip was immersed in an NaOH aqueous solution (1 N) at 40° C. for 16 hours, followed by washing with water 3 times. This sample is called a PMMA/COOH surface chip. This PMMA/COOH surface chip was immersed in 2 ml of a mixed solution of 1-ethyl-2,3-dimethylaminopropylcarbodiimide (400 mM) and N-hydroxysuccinimide (100 mM) for 60 minutes. Thereafter, it was immersed in 2 ml of an α-amino-polyethyleneoxy-ω-carboxylic acid (mean molecular weight: 5,000) aqueous solution (10 mM) for 16 hours. The resultant product was finally washed with water 5 times. The thus obtained sensor chip was used in the following operation.
as §1, with “solution” for “solution consisting”, “the sensor chip produced in (1) above,” for “a hydrogel-coated chip,”, “buffer.” for “buffer. The used HBS-N buffer is composed of 0.01 mol/l (pH 7.4) HEPES (N-2-hydroxyethylpiperazine-N′-2-ethanesulfonic acid) and 0.15 mol/l NaCl.”
Thereafter, an ethanolamine/HCl solution (1M, pH 8.5) was added to the measurement chip, followed by washing with an HBS-N buffer (manufactured by Biacore).
The sensor chip on which trypsin had been immobilized was washed with an HBS-N buffer.

Trypsin [4] = biological target: T1, Trypsin; assay: Selection of compounds due to biological activity: trypsin enzyme activity with Bz-Arg-MCA, fluorescence (Example 7); type: biochemical
Experimental: as §5
Thereafter, the reaction was then carried out for 10, 30, 60, and 120 minutes.
as §6

Trypsin [5] = biological target: T1, Trypsin; assay: SPR binding to trypsin on PMMA measurement chip, Biacore 3000 (Example 5); conditions: leupeptin 0.002 mM, 10 minutes
Experimental: Trypsin (manufactured by Worthington) was immobilized on a PMMA measurement chip. Interaction measurement was carried out using a surface plasmon resonance measurement device (Biacore 3000).
A PMMA measurement chip was equipped into Biacore 3000. A mixed solution of 1-ethyl-2,3-dimethylaminopropylcarbodiimide (400 mM) and N-hydroxysulfosuccinimide (100 mM) was added thereto, followed by reaction for 7 minutes. Thereafter, trypsin (0.05 mg/ml, 10 mM CaCl2-containing HBS-N buffer) was added thereto, followed by reaction for 7 minutes.
Thereafter, an ethanolamine/HCl solution (1M, pH 8.5) was added to the measurement chip, followed by reaction for 7 minutes, so as to block COOH groups that remained without reacting with trypsin.
as §2, with “of the PMMA measurement chip” for “of the measurement chip”
A leupeptin solution (0.002 mM, HBS-N buffer) was added to a measurement chip, followed by reaction for 10 minutes. The amount by which resonance signals (RU value) had changed was defined as the amount of leupeptin (manufactured by ICN) binding to trypsin.

Trypsin [6] = biological target: T1, Trypsin; assay: Enzyme activity of trypsin on PMMA chip with Bz-Arg-MCA, fluorescence (Example 5); type: biochemical; conditions: leupeptin 0.002 mM, 0.1 mM Bz-Arg-MCA
Experimental: as §4, with “Using the PMMA chip after” for “Using the chip after”, “to trypsin in (2)” for “to trypsin described in (2)”
The inside of the PMMA measurement chip was washed with an HBS-N buffer. Thereafter, a leupeptin solution (0.002 mM, HBS-N buffer) and 0.1 mM Bz-Arg-MCA were added thereto. The reaction was then carried out for 10, 30, 60, and 120 minutes.
as §6

Row | SMILES | Bond of substance interacting with trypsin (RU) (Trypsin [1]) | Binding to trypsin (in words) (Trypsin [1]) | Measurement results of fluorescence intensity (120 minutes) (Trypsin [2]) | Inhibitory action on the enzyme activity of trypsin (in words) (Trypsin [2]) | Binding amount (RU) (Trypsin [3]) | Measurement value of fluorescence intensity (Trypsin [4]; 4 μM compound solution mixed 1:1 with 0.2 mM Bz-Arg-MCA, reaction time of the value not given, no compound: 594) | Inhibition of the enzyme activity of trypsin, selection of compounds (in words) (Trypsin [4]; Example 7 (3)) | Selection due to enzyme activity (Trypsin [4]; symbols ◯ / X, key not given) | Binding amount of substance interacting with trypsin, compared with CM5 cup (Trypsin [5]) | Fluorescence intensity, compared with CM5 cup (Trypsin [6]) | Binding observed, selection of compounds (in words) (Trypsin [3]; Example 6 (3)) | Selection due to binding amount (Trypsin [3]; symbols ◯ / X, key not given)
1 | CC(C)C[C@H](NC(=O)[C@@H](NC(=O)N[C@@H](Cc1ccccc1)C(=O)O)[C@@H]1CCN=C(N)N1)C(=O)N[C@H](C=O)Cc1ccccc1 [Chymostatin] | 0 | did not bind to trypsin | 576 | no inhibitory action on the enzyme activity of trypsin was observed | 0 |  |  |  |  |  |  | 
2 | CC(=O)N[C@@H](CC(C)C)C(=O)N[C@@H](CC(C)C)C(=O)N[C@H](C=O)CCCNC(=N)N [Leupeptin] | 22 | bound to the enzyme activity site of trypsin | 2 | inhibiting the enzyme activity | 23 | 3 | inhibited the enzyme activity of trypsin | ◯ | equivalent to the values obtained with CM5 cup | equivalent to the values obtained with CM5 cup | the binding of which were observed, were selected | ◯
